In patent US9914722B2, “Compounds for treating spinal muscular atrophy” (PTC Therapeutics Inc., priority 2012, dated 2018):

Assays:
[1] = tested on: full length SMN2 minigene mRNA containing SMN2 exon 7 (SMN2-A minigene); assay: SMN2 minigene mRNA splicing RT-qPCR assay in cultured cells; assay type: cell-based, human; details: Homo sapiens, HEK293-H; HEK293H cells stably transfected with SMN2-A minigene, 24 hours, 7-point concentration curve; concentration giving 1.5-fold SMN2 full length mRNA vs vehicle; read-out: EC1.5x for production of full length SMN2 mRNA
In short: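 HEK293H cells stably carrying the SMN2-A minigene were treated 24 h at 37 °C with a 7-point, 3.16-fold test compound series, in duplicate. Multiplex RT-qPCR measured exon 7-containing minigene FL mRNA, normalized to GAPDH and expressed relative to vehicle; EC1.5x is the concentration giving 1.5-fold FL mRNA.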

[2] = tested on: Smn protein; assay: Smn protein assay (Smn HTRF) in cultured cells; assay type: cell-based, human; details: Homo sapiens, Fibroblast, GM03813 SMA Type 1 patient fibroblasts, 48 hours, HTRF; for maximal fold induction: 7-point concentration data, relative to vehicle, read-out: maximum fold (Fold) increase of Smn protein; for EC (1.5-fold): concentration producing 1.5 times Smn protein vs DMSO vehicle, read-out: EC1.5x for Smn protein expression
In short: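 SMA patient fibroblasts (5,000/well) were exposed to a 7-point, 3.16-fold compound dilution series for 48 hours at 37° C, in triplicate. Lysates were read by HTRF with anti-SMN d2/kryptate at 665/620 nm. Blank-corrected signal was expressed as fold over DMSO vehicle, giving the EC1.5x and the maximum fold increase.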

Compound	melting point	EC (1.5-fold) [1]	maximal fold induction [2]	EC (1.5-fold) [2]
O=c1cc(-c2ccccn2)oc2ccc(N3CCCNCC3)cc12 [Cpd 14, 6-(1,4-diazepan-1-yl)-2-(pyridin-2-yl)-4H-chromen-4-one]	170 to 172 °C	3 to 30 µM	≤ 1.2	–
COc1ccc(-c2cc(=O)c3cc(N4CCNCC4)ccc3o2)cc1F [Cpd 37, 2-(3-fluoro-4-methoxyphenyl)-6-(piperazin-1-yl)-4H-chromen-4-one]	178 to 180 °C	0.1 to 0.3 µM	1.35 to 1.5	1 to 3 µM
O=c1cc(-c2cccc(F)c2)oc2ccc(N3CCNCC3)cc12 [Cpd 66, 2-(3-fluorophenyl)-6-(piperazin-1-yl)-4H-chromen-4-one]	150 to 152 °C	0.1 to 0.3 µM	1.35 to 1.5	–
COc1ccc(-c2cc(=O)c3cc(N4C[C@@H](C)N[C@@H](C)C4)ccc3o2)cc1OC [Cpd 24, 2-(3,4-dimethoxyphenyl)-6-[(3R,5S)-3,5-dimethylpiperazin-1-yl]-4H-chromen-4-one]	206 to 208 °C	0.3 to 1 µM	> 1.65	1 to 3 µM
COc1ccc(-c2cc(=O)c3cc(N4CCCNCC4)ccc3o2)cc1OC [Cpd 25, 6-(1,4-diazepan-1-yl)-2-(3,4-dimethoxyphenyl)-4H-chromen-4-one]	152 to 154 °C	3 to 30 µM	1.35 to 1.5	–
C[C@H]1CN(c2ccc3oc(-c4nc5ccccc5s4)cc(=O)c3c2)CCN1 [Cpd 36, 2-(1,3-benzothiazol-2-yl)-6-[(3S)-3-methylpiperazin-1-yl]-4H-chromen-4-one]	140 to 142 °C	0.3 to 1 µM	1.5 to 1.65	1 to 3 µM
Cc1ccn2cc(-c3cc(=O)c4cc(N5CCNCC5)ccc4o3)nc2c1 [Cpd 28, 2-(7-methylimidazo[1,2-a]pyridin-2-yl)-6-(piperazin-1-yl)-4H-chromen-4-one]	228 to 232 °C	1 to 3 µM	> 1.65	3 to 10 µM
CN1CCCN(c2ccc3oc(-c4cccnc4)cc(=O)c3c2)CC1 [Cpd 5, 6-(4-methyl-1,4-diazepan-1-yl)-2-(pyridin-3-yl)-4H-chromen-4-one]	136 to 138 °C	3 to 30 µM	1.2 to 1.35	–
COc1ccc(-c2cc(=O)c3cc(N4CCNC(C)(C)C4)ccc3o2)cc1OC [Cpd 27, 2-(3,4-dimethoxyphenyl)-6-(3,3-dimethylpiperazin-1-yl)-4H-chromen-4-one]	108 to 110 °C	0.3 to 1 µM	> 1.65	1 to 3 µM
CC1(C)CN(c2ccc3oc(-c4cccnc4)cc(=O)c3c2)CCN1 [Cpd 10, 6-(3,3-dimethylpiperazin-1-yl)-2-(pyridin-3-yl)-4H-chromen-4-one]	140 to 142 °C	1 to 3 µM	1.35 to 1.5	–
CCOc1ccc(-c2cc(=O)c3cc(N4CCNCC4)ccc3o2)cc1 [Cpd 41, 2-(4-ethoxyphenyl)-6-(piperazin-1-yl)-4H-chromen-4-one]	180 to 182 °C	0.3 to 1 µM	≤ 1.2	–
CN1CCN(c2ccc3oc(-c4ccccn4)cc(=O)c3c2)CC1 [Cpd 12, 6-(4-methylpiperazin-1-yl)-2-(pyridin-2-yl)-4H-chromen-4-one]	150 to 152 °C	3 to 30 µM	≤ 1.2	–
C[C@@H]1CN(c2ccc3oc(-c4cccnc4)cc(=O)c3c2)C[C@H](C)N1 [Cpd 9, 6-[(3R,5S)-3,5-dimethylpiperazin-1-yl]-2-(pyridin-3-yl)-4H-chromen-4-one]	148 to 150 °C	1 to 3 µM	1.5 to 1.65	3 to 10 µM
COc1ccc(-c2cc(=O)c3cc(N4CCN[C@@H](C)C4)ccc3o2)cc1OC [Cpd 31, 2-(3,4-dimethoxyphenyl)-6-[(3S)-3-methylpiperazin-1-yl]-4H-chromen-4-one]	172 to 174 °C	≤ 0.1 µM	> 1.65	≤ 0.3 µM
C[C@@H]1CN(c2ccc3oc(-c4nc5ccccc5s4)cc(=O)c3c2)CCN1 [Cpd 33, 2-(1,3-benzothiazol-2-yl)-6-[(3R)-3-methylpiperazin-1-yl]-4H-chromen-4-one]	142 to 144 °C	1 to 3 µM	1.2 to 1.35	–
O=c1cc(-c2cccnc2)oc2ccc(N3CCNCC3)cc12 [Cpd 1, 6-(piperazin-1-yl)-2-(pyridin-3-yl)-4H-chromen-4-one]	177 to 180 °C	0.3 to 1 µM	1.35 to 1.5	–
C[C@@H]1CN(c2ccc3oc(-c4ccccn4)cc(=O)c3c2)CCN1 [Cpd 15, 6-[(3R)-3-methylpiperazin-1-yl]-2-(pyridin-2-yl)-4H-chromen-4-one]	140 to 142 °C	1 to 3 µM	1.5 to 1.65	3 to 10 µM
C[C@@H]1CN(c2ccc3oc(-c4cn5ccccc5n4)cc(=O)c3c2)CCN1 [Cpd 16, 2-(imidazo[1,2-a]pyridin-2-yl)-6-[(3R)-3-methylpiperazin-1-yl]-4H-chromen-4-one]	210 to 215 °C	1 to 3 µM	> 1.65	1 to 3 µM
COc1ccc(-c2cc(=O)c3cc(N4CCN[C@H](C)C4)ccc3o2)cc1F [Cpd 40, 2-(3-fluoro-4-methoxyphenyl)-6-[(3R)-3-methylpiperazin-1-yl]-4H-chromen-4-one]	110 to 112 °C	0.1 to 0.3 µM	1.35 to 1.5	1 to 3 µM

Now from value to compound, other results behind:

melting point	Compound	EC (1.5-fold) [1]	maximal fold induction [2]	EC (1.5-fold) [2]
164 to 166 °C	COc1cc(F)c(-c2cc(=O)c3cc(N4C[C@@H](C)N[C@@H](C)C4)ccc3o2)cc1OC [Cpd 47, 6-[(3R,5S)-3,5-dimethylpiperazin-1-yl]-2-(2-fluoro-4,5-dimethoxyphenyl)-4H-chromen-4-one]	1 to 3 µM	1.5 to 1.65	1 to 3 µM
155 to 160 °C	COc1ccc(-c2cc(=O)c3cc(N4CCN[C@@H](C)C4)ccc3o2)cc1 [Cpd 63, 2-(4-methoxyphenyl)-6-[(3S)-3-methylpiperazin-1-yl]-4H-chromen-4-one]	0.1 to 0.3 µM	1.5 to 1.65	0.3 to 1 µM
168 to 172 °C	C[C@H]1CN(c2ccc3oc(-c4cncc(F)c4)cc(=O)c3c2)CCN1 [Cpd 75, 2-(5-fluoropyridin-3-yl)-6-[(3S)-3-methylpiperazin-1-yl]-4H-chromen-4-one]	0.3 to 1 µM	1.5 to 1.65	1 to 3 µM
138 to 140 °C	C[C@H]1CN(c2ccc3oc(-c4ccc(OC(F)(F)F)cc4)cc(=O)c3c2)CCN1 [Cpd 65, 6-[(3S)-3-methylpiperazin-1-yl]-2-[4-(trifluoromethoxy)phenyl]-4H-chromen-4-one]	1 to 3 µM	≤ 1.2	–
150 to 152 °C	C[C@H]1CN(c2ccc3oc(-c4cccc(C(F)(F)F)c4)cc(=O)c3c2)CCN1 [Cpd 78, 6-[(3S)-3-methylpiperazin-1-yl]-2-[3-(trifluoromethyl)phenyl]-4H-chromen-4-one]	≤ 0.1 µM	> 1.65	≤ 0.3 µM
164 to 166 °C	COc1ccc(-c2cc(=O)c3cc(N4CCN[C@H](C)C4)ccc3o2)cc1C [Cpd 54, 2-(4-methoxy-3-methylphenyl)-6-[(3R)-3-methylpiperazin-1-yl]-4H-chromen-4-one]	0.3 to 1 µM	1.2 to 1.35	–
165 to 170 °C	COc1ccc(-c2cc(=O)c3cc(N4CCNCC4)ccc3o2)cn1 [Cpd 55, 2-(6-methoxypyridin-3-yl)-6-(piperazin-1-yl)-4H-chromen-4-one]	0.3 to 1 µM	1.2 to 1.35	–
130 to 132 °C	COc1cc(F)c(-c2cc(=O)c3cc(N4CCNCC4)ccc3o2)cc1OC [Cpd 45, 2-(2-fluoro-4,5-dimethoxyphenyl)-6-(piperazin-1-yl)-4H-chromen-4-one]	1 to 3 µM	1.2 to 1.35	–
128 to 130 °C	CC(C)Oc1ccc(-c2cc(=O)c3cc(N4CCN[C@@H](C)C4)ccc3o2)cc1 [Cpd 50, 6-[(3S)-3-methylpiperazin-1-yl]-2-[4-(propan-2-yloxy)phenyl]-4H-chromen-4-one]	1 to 3 µM	≤ 1.2	–
98 to 100 °C	COc1ccc(-c2cc(=O)c3cc(N4CCNCC4)ccc3o2)cc1C [Cpd 51, 2-(4-methoxy-3-methylphenyl)-6-(piperazin-1-yl)-4H-chromen-4-one]	0.3 to 1 µM	1.35 to 1.5	–
128 to 132 °C	COc1ccc(-c2cc(=O)c3cc(N4CCNCC4)ccc3o2)cc1C(F)(F)F [Cpd 69, 2-[4-methoxy-3-(trifluoromethyl)phenyl]-6-(piperazin-1-yl)-4H-chromen-4-one]	0.3 to 1 µM	1.35 to 1.5	–
